pIC50: −log10 of the molar value.
What follows are compounds tested on HDACs (HeLa cell nuclear extracts) (assay: HDAC enzymatic activity, Biomol Color de Lys system).
Type: biochemical
Procedure: (e) An In Vitro Assay which Determines the Ability of a Test Compound to Inhibit HDAC Enzymatic Activity.
HDAC inhibitory activity was assessed using the Biomol Color de Lys system (AK-500, Biomol, Plymouth Meeting, Pa.). Briefly, HeLa cell nuclear extracts were used as a source of HDACs. Different concentrations of test compounds were serially diluted in dimethylsulphoxide (DMSO) and added to HeLa cell nuclear extracts in the presence of a colorimetric artificial substrate. Final assay condition contained 50 mM Tris/Cl, pH 8.0, 137 mM NaCl, 2.7 mM KCl and 1 mM MgCl2. Reactions were carried in room temperature (25° C.) for 1 hour before addition of developer for termination. Relative enzyme activity was measured in the WALLAC Victor II 1420 microplate reader as floorescence intensity (excitation: 350-380 nm; emission: 440-460 nm). Data were analyzed using GraphPad Prism (v4.0a) with a sigmoidal dose response curve fitting for IC50 calculation.

| SMILES | pIC50 |
| --- | --- |
| C#CCCN(Cc1cc2nc(-c3cccc4[nH]ncc34)nc(N3CCOCC3)c2s1)c1ncc(C(=O)NO)cn1 [Compound 98] | > 7.00 |
| O=C(NO)c1ccc2c(ccn2Cc2cc3nc(-c4cccc5[nH]ncc45)nc(N4CCOCC4)c3s2)c1 [Compound 105] | 6.00 to 7.00 |
| Cn1cc(CNc2cc3nc(-c4cccc5[nH]ncc45)nc(N4CCOCC4)c3s2)c2cc(C(=O)NO)ccc21 [Compound 106] | 5.00 to 6.00 |
| CN(Cc1cc2nc(-c3cccc(C(N)=O)c3)nc(N3CCOCC3)c2s1)c1ncc(C(=O)NO)cn1 [Compound 142, 2-(((2-(3-carbamoylphenyl)-4-morpholinothieno[3,2-d]pyrimidin-6-yl)methyl)(methyl)amino)-N-hydroxypyrimidine-5-carboxamide] | > 7.00 |
| CCN(CC)c1nc(-c2cccc3[nH]ncc23)nc2cc(CN(C)c3ncc(C(=O)NO)cn3)sc12 [Compound 158] | > 7.00 |
| CN(C)c1nc(-c2cccc3[nH]ncc23)nc2cc(CN(C)c3ncc(C(=O)NO)cn3)sc12 [Compound 159] | > 7.00 |
| COCCNc1nc(-c2cccc3[nH]ncc23)nc2cc(CN(C)c3ncc(C(=O)NO)cn3)sc12 [Compound 160] | > 7.00 |
| COCCN(CCOC)c1nc(-c2cccc3[nH]ncc23)nc2cc(CN(C)c3ncc(C(=O)NO)cn3)sc12 [Compound 163] | > 7.00 |
| CN(Cc1cc2nc(-c3cccc4c3CC(=O)N4)nc(N3CCOCC3)c2s1)c1ncc(C(=O)NO)cn1 [Compound 178] | > 7.00 |
| CN(Cc1cc2nc(-c3cccc4c3CNC4=O)nc(N3CCOCC3)c2s1)c1ncc(C(=O)NO)cn1 [Compound 181] | > 7.00 |
| CN(Cc1cc2nc(-c3ccc4c(c3)NC(=O)CO4)nc(N3CCOCC3)c2s1)c1ncc(C(=O)NO)cn1 [Compound 183] | > 7.00 |
| CN(Cc1cc2nc(-c3c[nH]c4ccccc34)nc(N3CCOCC3)c2s1)c1ncc(C(=O)NO)cn1 [Compound 184] | > 7.00 |
| CN(Cc1cc2nc(-c3ccc4[nH]ccc4c3)nc(N3CCOCC3)c2s1)c1ncc(C(=O)NO)cn1 [Compound 192] | > 7.00 |
| Nc1ccc(-c2nc(N3CCOCC3)c3sc(CN4CCN(c5ncc(C(=O)NO)cn5)CC4)cc3n2)cc1 [Compound 207] | > 7.00 |
| Nc1ccc(-c2nc(N3CCOCC3)c3sc(CNCc4ccc(/C=C/C(=O)NO)cc4)cc3n2)cc1 [Compound 210] | 6.00 to 7.00 |
| CC(c1cc2nc(-c3ccc(N)cc3)nc(N3CCOCC3)c2s1)N(C)c1ncc(C(=O)NO)cn1 (stereo not drawn) [Compound 214] | > 7.00 |
| CCN(Cc1cc2nc(-c3ccc(N)cc3)nc(N3CCOCC3)c2s1)c1ncc(C(=O)NO)cn1 [Compound 215] | > 7.00 |
| COc1ncc(-c2nc(N3CCOCC3)c3sc(NS(=O)(=O)c4cccc(/C=C/C(=O)NO)c4)cc3n2)cn1 [Compound 220] | > 7.00 |
| CNc1ccc(-c2nc(N3CCOCC3)c3sc(NS(=O)(=O)c4cccc(/C=C/C(=O)NO)c4)cc3n2)cn1 [Compound 224] | > 7.00 |
| COc1ccc(-c2nc(N3CCOCC3)c3sc(NCCCCC(=O)NO)cc3n2)cn1 [Compound 230] | > 7.00 |
| Nc1ccc(-c2nc(N3CCOCC3)c3sc(CN(CCO)c4ncc(C(=O)NO)cn4)cc3n2)cn1 [Compound 235] | > 7.00 |
| CNc1ccc(-c2nc(N3CCOCC3)c3sc(N(C)c4ncc(C(=O)NO)cn4)cc3n2)cn1 [Compound 243] | 6.00 to 7.00 |
| CNc1ccc(-c2nc(N3CCOCC3)c3sc(CN(CCO)c4ncc(C(=O)NO)cn4)cc3n2)cn1 [Compound 245] | > 7.00 |
| COc1ccc(-c2nc(N3CCOCC3)c3sc(C(C)N(C)c4ncc(C(=O)NO)cn4)cc3n2)cn1 (stereo not drawn) [Compound 247, N-hydroxy-2-((1-(2-(6-methoxypyridin-3-yl)-4-morpholinothieno[3,2-d]pyrimidin-6-yl)ethyl)(methyl)amino)pyrimidine-5-carboxamide] | > 7.00 |
| COc1ncc(-c2nc(N3CCOCC3)c3sc(C(C)(C)N(C)c4ncc(C(=O)NO)cn4)cc3n2)cn1 [Compound 264] | > 7.00 |
| CC(C)(Nc1ncc(C(=O)NO)cn1)c1cc2nc(-c3ccc(N)cc3)nc(N3CCOCC3)c2s1 [Compound 269, 2-(2-(2-(4-Aminophenyl)-4-morpholinothieno[3,2-d]pyrimidin-6-yl)propan-2-ylamino)-N-hydroxypyrimidine-5-carboxamide] | > 7.00 |
| Nc1ccc(-c2nc(N3CCOCC3)c3sc(Nc4ncc(C(=O)NO)cn4)cc3n2)cc1 [Compound 273] | 6.00 to 7.00 |
| Nc1ccc(-c2nc(N3CCOCC3)c3sc(CN(CCO)c4ncc(C(=O)NO)cn4)cc3n2)cc1 [Compound 274] | > 7.00 |
| Nc1ccc(-c2nc(N3CCOCC3)c3sc(CN(CCO)c4ncc(C(=O)NO)cn4)cc3n2)cc1F [Compound 277] | > 7.00 |

Continued, values first:

| pIC50 | SMILES |
| --- | --- |
| > 7.00 | CC(=O)NCCN(Cc1cc2nc(-c3cccc4[nH]ncc34)nc(N3CCOCC3)c2s1)c1ncc(C(=O)NO)cn1 [Compound 96] |
| > 7.00 | NC(=O)CN(Cc1cc2nc(-c3cccc4[nH]ncc34)nc(N3CCOCC3)c2s1)c1ncc(C(=O)NO)cn1 [Compound 97] |
| > 7.00 | CN(Cc1cc2nc(-c3cnc(C(N)=O)nc3)nc(N3CCOCC3)c2s1)c1ncc(C(=O)NO)cn1 [Compound 122] |
| > 7.00 | CN(Cc1cc2nc(-c3cccc4[nH]ncc34)nc(NCCO)c2s1)c1ncc(C(=O)NO)cn1 [Compound 161] |
| > 7.00 | CN(Cc1cc2nc(-c3cccc4[nH]ncc34)nc(N(CCO)CCO)c2s1)c1ncc(C(=O)NO)cn1 [Compound 162] |
| > 7.00 | COc1ccc(Nc2nc(-c3cccc4[nH]ncc34)nc3cc(CN(C)c4ncc(C(=O)NO)cn4)sc23)cc1 [Compound 165] |
| > 7.00 | COc1cccc(Nc2nc(-c3cccc4[nH]ncc34)nc3cc(CN(C)c4ncc(C(=O)NO)cn4)sc23)c1 [Compound 166] |
| > 7.00 | COc1ccccc1Nc1nc(-c2cccc3[nH]ncc23)nc2cc(CN(C)c3ncc(C(=O)NO)cn3)sc12 [Compound 167] |
| > 7.00 | CN(Cc1cc2nc(-c3ccc4c(c3)OCCN4)nc(N3CCOCC3)c2s1)c1ncc(C(=O)NO)cn1 [Compound 191] |
| > 7.00 | CN(Cc1cc2nc(-c3ccc4c(c3)CCN4)nc(N3CCOCC3)c2s1)c1ncc(C(=O)NO)cn1 [Compound 193] |
| 6.00 to 7.00 | O=C(NO)c1ccc(CNCc2cc3nc(-c4cccc5[nH]ncc45)nc(N4CCOCC4)c3s2)cc1 [Compound 203] |
| 6.00 to 7.00 | O=C(/C=C/c1ccc(CNCc2cc3nc(-c4cccc5[nH]ncc45)nc(N4CCOCC4)c3s2)cc1)NO [Compound 204] |
| > 7.00 | CN(Cc1cc2nc(-c3ccc(N)cc3)nc(N3CCOCC3)c2s1)c1ccc(C(=O)NO)cc1 [Compound 206] |
| > 7.00 | Nc1ccc(-c2nc(N3CCOCC3)c3sc(CNCc4ccc(C(=O)NO)cc4)cc3n2)cc1 [Compound 209] |
| > 7.00 | O=C(/C=C/c1cccc(S(=O)(=O)Nc2cc3nc(-c4cccc5[nH]ncc45)nc(N4CCOCC4)c3s2)c1)NO [Compound 216] |
| > 7.00 | COc1ncc(-c2nc(N3CCOCC3)c3sc(NS(=O)(=O)c4ccc(/C=C/C(=O)NO)cc4)cc3n2)cn1 [Compound 219] |

| pIC50 | SMILES |
| --- | --- |
| > 7.00 | CNc1ccc(-c2nc(N3CCOCC3)c3sc(NS(=O)(=O)c4ccc(/C=C/C(=O)NO)cc4)cc3n2)cn1 [Compound 223] |
| > 7.00 | O=C(CCCCNc1cc2nc(-c3cc(O)ccc3F)nc(N3CCOCC3)c2s1)NO [Compound 231] |
| > 7.00 | CNc1ccc(-c2nc(N3CCOCC3)c3sc(C(C)(C)N(C)c4ncc(C(=O)NO)cn4)cc3n2)cn1 [Compound 241] |
| > 7.00 | COc1ccc(-c2nc(N3CCOCC3)c3sc(C(C)(C)Nc4ncc(C(=O)NO)cn4)cc3n2)cn1 [Compound 250, N-Hydroxy-2-(2-(2-(6-methoxypyridin-3-yl)-4-morpholinothieno[3,2-d]pyrimidin-6-yl)propan-2-ylamino)pyrimidine-5-carboxamide] |
| 6.00 to 7.00 | COc1ccc(-c2nc(N3CCOCC3)c3sc(Nc4ncc(C(=O)NO)cn4)cc3n2)cn1 [Compound 253] |
| > 7.00 | CN(Cc1cc2nc(-c3ccc(O)nc3)nc(N3CCOCC3)c2s1)c1ncc(C(=O)NO)cn1 [Compound 254] |
| > 7.00 | CN(Cc1cc2nc(-c3ccc(OCc4ccccc4)nc3)nc(N3CCOCC3)c2s1)c1ncc(C(=O)NO)cn1 [Compound 260] |
| > 7.00 | COc1ccc(-c2nc(N3CCOCC3)c3sc(CN(CCO)c4ncc(C(=O)NO)cn4)cc3n2)cn1 [Compound 265] |
| > 7.00 | CN(Cc1cc2nc(-c3cnc(OCc4ccccc4)nc3)nc(N3CCOCC3)c2s1)c1ncc(C(=O)NO)cn1 [Compound 266] |
| > 7.00 | CN(c1ncc(C(=O)NO)cn1)C(C)(C)c1cc2nc(-c3ccc(N)cc3)nc(N3CCOCC3)c2s1 [Compound 270] |
| > 7.00 | CN(c1ncc(C(=O)NO)cn1)c1cc2nc(-c3ccc(N)cc3)nc(N3CCOCC3)c2s1 [Compound 272] |
| > 7.00 | CN(Cc1cc2nc(-c3ccc(N)cc3F)nc(N3CCOCC3)c2s1)c1ncc(C(=O)NO)cn1 [Compound 283, 2-{[2-(4-Amino-2-fluoro-phenyl)-4-morpholin-4-yl-thieno[3,2-d]pyrimidin-6-ylmethyl]-methyl-amino}-pyrimidine-5-carboxylic acid hydroxyamide] |
| > 7.00 | CC(C)C(=O)Nc1ccc(-c2nc(N3CCOCC3)c3sc(CN(C)c4ncc(C(=O)NO)cn4)cc3n2)cc1 [Compound 286] |
| > 7.00 | CC(C)OC(=O)Nc1ccc(-c2nc(N3CCOCC3)c3sc(CN(C)c4ncc(C(=O)NO)cn4)cc3n2)cc1 [Compound 287] |
| > 7.00 | CN(Cc1cc2nc(-c3cccc(NS(C)(=O)=O)c3)nc(N3CCOCC3)c2s1)c1ncc(C(=O)NO)cn1 [Compound 288] |

Reference: US8906909B2 (Curis, Inc., priority 2009, dated 2014)
